Assay results reported in patent publication US20240092773A1, “DIHYDRO-CYCLOPENTA-ISOQUINOLINE SULFONAMIDES DERIVATIVES” (UCB Biopharma SRL, priority 2019, published 2024).

biological target: IgE-Tb binding to soluble IgE receptor FcεR1α (Y131A mutation) (Homo sapiens, UniProt P01854, N146Q/N252Q); assay: In vitro FRET assay: inhibition of binding of IgE-Tb to receptor FcεR1α-Y131A-AF488; details: read-out: FRET IC50 range
Sequence (P01854 whole entry N146Q/N252Q, looked up): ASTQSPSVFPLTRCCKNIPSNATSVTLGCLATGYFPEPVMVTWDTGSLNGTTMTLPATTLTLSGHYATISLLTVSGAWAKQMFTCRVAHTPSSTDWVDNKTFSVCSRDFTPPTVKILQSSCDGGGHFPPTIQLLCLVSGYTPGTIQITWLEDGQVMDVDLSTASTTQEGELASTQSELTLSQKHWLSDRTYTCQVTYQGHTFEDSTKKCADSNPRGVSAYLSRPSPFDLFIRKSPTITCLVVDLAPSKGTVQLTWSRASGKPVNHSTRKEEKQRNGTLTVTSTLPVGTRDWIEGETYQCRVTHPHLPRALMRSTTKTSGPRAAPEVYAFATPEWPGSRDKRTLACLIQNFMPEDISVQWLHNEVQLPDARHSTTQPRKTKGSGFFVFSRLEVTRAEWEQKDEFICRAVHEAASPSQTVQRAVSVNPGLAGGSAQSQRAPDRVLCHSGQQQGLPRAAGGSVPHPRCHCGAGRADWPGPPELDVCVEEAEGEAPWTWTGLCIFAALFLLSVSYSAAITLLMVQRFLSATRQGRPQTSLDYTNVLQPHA

Compound | IC50
CC(C)CNS(=O)(=O)c1cc2c(c3cnc(C4CC4)cc13)C(F)CC2 (stereo not drawn) [Example 65, 3-cyclopropyl-9-fluoro-N-(2-methylpropyl)-8,9-dihydro-7H-cyclopenta[h]isoquinoline-5-sulfonamide] | 100 to 2000 nM
CC(C)(F)CNS(=O)(=O)c1cc2c(c3cnc(C4CC4)cc13)CCC2NC1=CC(=O)C1(C)C (stereo not drawn) [Example 60, 3-cyclopropyl-7-[(4,4-dimethyl-3-oxocyclobuten-1-yl)amino]-N-(2-fluoro-2-methylpropyl)-8,9-dihydro-7H-cyclopenta[h]isoquinoline-5-sulfonamide] | 100 to 2000 nM
CC(C)CNS(=O)(=O)c1cc2c(c3cnc(C4CC4)cc13)CCC2N (stereo not drawn) [Example 50, 7-amino-3-cyclopropyl-N-(2-methylpropyl)-8,9-dihydro-7H-cyclopenta[h]isoquinoline-5-sulfonamide] | 100 to 2000 nM
CC(C)CNS(=O)(=O)c1cc2c(c3cnc(C4CC4)cc13)C(Nc1c(Nc3cccnc3)c(=O)c1=O)CC2 (stereo not drawn) [Example 78, 3-cyclopropyl-9-[[3,4-dioxo-2-(pyridin-3-ylamino)cyclobuten-1-yl]amino]-N-(2-methylpropyl)-8,9-dihydro-7H-cyclopenta[h]isoquinoline-5-sulfonamide] | 50 to 100 nM
CC(C)CNS(=O)(=O)c1cc2c(c3cnc(C4CC4)cc13)CCC2NS(C)(=O)=O (stereo not drawn) [Example 83, 3-cyclopropyl-7-(methanesulfonamido)-N-(2-methylpropyl)-8,9-dihydro-7H-cyclopenta[h]isoquinoline-5-sulfonamide] | 100 to 2000 nM
CC(C)(F)CNS(=O)(=O)c1cc2c(c3cnc(C4CC4)cc13)CCC2(O)c1cccnc1 (stereo not drawn) [Example 10, 3-cyclopropyl-N-(2-fluoro-2-methylpropyl)-7-hydroxy-7-pyridin-3-yl-8,9-dihydrocyclopenta[h]isoquinoline-5-sulfonamide] | 100 to 2000 nM
CC(C)(F)CNS(=O)(=O)c1cc2c(c3cnc(C4CC4)cc13)CCC2n1nccc1NC(=O)C1CC1 (stereo not drawn) [Example 38, N-[2-[3-cyclopropyl-5-[(2-fluoro-2-methylpropyl)sulfamoyl]-8,9-dihydro-7H-cyclopenta[h]isoquinolin-7-yl]pyrazol-3-yl]cyclopropanecarboxamide] | 100 to 2000 nM
Cn1ncc2c(NC3CCc4cc(S(=O)(=O)NCC(C)(C)F)c5cc(C6CC6)ncc5c43)cncc21 (stereo not drawn) [Example 43, 3-cyclopropyl-N-(2-fluoro-2-methylpropyl)-9-[(1-methylpyrazolo[3,4-c]pyridin-4-yl)amino]-8,9-dihydro-7H-cyclopenta[h]isoquinoline-5-sulfonamide] | 100 to 2000 nM
CC(C)CNS(=O)(=O)c1cc2c(c3cnc(C4CC4)cc13)CCC2Nc1c(Nc2cccnc2)c(=O)c1=O (stereo not drawn) [Example 84, 3-cyclopropyl-7-[[3,4-dioxo-2-(pyridin-3-ylamino)cyclobuten-1-yl]amino]-N-(2-methylpropyl)-8,9-dihydro-7H-cyclopenta[h]isoquinoline-5-sulfonamide] | 10 to 50 nM
CC1CC1C(=O)NC1CCc2cc(S(=O)(=O)NCC(C)(C)F)c3cc(C4CC4)ncc3c21 (stereo not drawn) [Example 26, N-[3-cyclopropyl-5-[(2-fluoro-2-methylpropyl)sulfamoyl]-8,9-dihydro-7H-cyclopenta[h]isoquinolin-9-yl]-2-methylcyclopropane-1-carboxamide] | 100 to 2000 nM
CC(C)CNS(=O)(=O)c1cc2c(c3cnc(C4CC4)cc13)[C@@H](Nc1nc3ccccc3[nH]1)CC2 (single isomer, unassigned) [Example 80, (9R*)-9-(1H-benzimidazol-2-ylamino)-3-cyclopropyl-N-(2-methylpropyl)-8,9-dihydro-7H-cyclopenta[h]isoquinoline-5-sulfonamide] | 10 to 50 nM
O=S(=O)(NC1CC(F)C1)c1cc2c(c3cnc(C4CC4)cc13)CCC2n1cnnc1NCC1CC1 (stereo not drawn) [Example 82, 3-cyclopropyl-7-[3-(cyclopropylmethylamino)-1,2,4-triazol-4-yl]-N-(3-fluorocyclobutyl)-8,9-dihydro-7H-cyclopenta[h]isoquinoline-5-sulfonamide] | 100 to 2000 nM
CC(C)(F)CNS(=O)(=O)c1cc2c(c3cnc(C4CC4)cc13)CC[C@@H]2NC(=O)C1CN(C(=O)OC(C)(C)C)C1 (single isomer, unassigned) [Example 56, tert-butyl 3-[[(7R*)-3-cyclopropyl-5-[(2-fluoro-2-methylpropyl)sulfamoyl]-8,9-dihydro-7H-cyclopenta[h]isoquinolin-7-yl]carbamoyl]azetidine-1-carboxylate] | 100 to 2000 nM
COC(=O)c1ccc(NC2CCc3cc(S(=O)(=O)NCC(C)C)c4cc(C5CC5)ncc4c32)cn1 (stereo not drawn) [Example 18, methyl 5-[[3-cyclopropyl-5-(2-methylpropylsulfamoyl)-8,9-dihydro-7H-cyclopenta[h]isoquinolin-9-yl]amino]pyridine-2-carboxylate] | 10 to 50 nM
CC(C)(F)CNS(=O)(=O)c1cc2c(c3cnc(C4CC4)cc13)C(Nc1cccnc1)CC2 (stereo not drawn) [Example 32, 3-cyclopropyl-N-(2-fluoro-2-methylpropyl)-9-(pyridin-3-ylamino)-8,9-dihydro-7H-cyclopenta[h]isoquinoline-5-sulfonamide] | 50 to 100 nM
Cn1ncc2c(NC3CCc4c3cc(S(=O)(=O)NCC(C)(C)F)c3cc(C5CC5)ncc43)cncc21 (stereo not drawn) [Example 41, 3-cyclopropyl-N-(2-fluoro-2-methylpropyl)-7-[(1-methylpyrazolo[3,4-c]pyridin-4-yl)amino]-8,9-dihydro-7H-cyclopenta[h]isoquinoline-5-sulfonamide] | 10 to 50 nM
Cc1ccc(NC(=NC#N)NC2CCc3c2cc(S(=O)(=O)NCC(C)C)c2cc(C4CC4)ncc32)cc1 (stereo not drawn) [Example 55, 2-cyano-1-[3-cyclopropyl-5-(2-methylpropylsulfamoyl)-8,9-dihydro-7H-cyclopenta[h]isoquinolin-7-yl]-3-(4-methylphenyl)guanidine] | 100 to 2000 nM
CC(C)CNS(=O)(=O)c1cc2c(c3cnc(C4CC4)cc13)[C@H](NC(=O)c1cccnc1)CC2 (single isomer, unassigned) [Example 21, N-[(9R*)-3-cyclopropyl-5-(2-methylpropylsulfamoyl)-8,9-dihydro-7H-cyclopenta[h]isoquinolin-9-yl]pyridine-3-carboxamide] | 10 to 50 nM
CC(C)(F)CNS(=O)(=O)c1cc2c(c3cnc(C4CC4)cc13)C(Nc1ccc3c(c1)CC(=O)N3)CC2 (stereo not drawn) [Example 29, 3-cyclopropyl-N-(2-fluoro-2-methylpropyl)-9-[(2-oxo-1,3-dihydroindol-5-yl)amino]-8,9-dihydro-7H-cyclopenta[h]isoquinoline-5-sulfonamide] | 100 to 2000 nM
COc1cncc(NC2CCc3cc(S(=O)(=O)NCC(C)(C)F)c4cc(C5CC5)ncc4c32)c1 (stereo not drawn) [Example 30, 3-cyclopropyl-N-(2-fluoro-2-methylpropyl)-9-[(5-methoxypyridin-3-yl)amino]-8,9-dihydro-7H-cyclopenta[h]isoquinoline-5-sulfonamide] | 10 to 50 nM
CC(C)CNS(=O)(=O)c1cc2c(c3cnc(C4CC4)cc13)CCC2O (stereo not drawn) [Example 47, 3-cyclopropyl-7-hydroxy-N-(2-methylpropyl)-8,9-dihydro-7H-cyclopenta[h]isoquinoline-5-sulfonamide] | 100 to 2000 nM
CC(C)CNS(=O)(=O)c1cc2c(c3cnc(C4CC4)cc13)C(n1cnnc1Nc1ccnn1C)CC2 (stereo not drawn) [Example 4, 3-cyclopropyl-N-isobutyl-9-[3-[(2-methylpyrazol-3-yl)amino]-1,2,4-triazol-4-yl]-8,9-dihydro-7H-cyclopenta[h]isoquinoline-5-sulfonamide] | 100 to 2000 nM
CC(C)CNS(=O)(=O)c1cc2c(c3cnc(C4CC4)cc13)C(C)(O)CC2 (stereo not drawn) [Example 64, 3-cyclopropyl-9-hydroxy-9-methyl-N-(2-methylpropyl)-7,8-dihydrocyclopenta[h]isoquinoline-5-sulfonamide] | 100 to 2000 nM
CC(C)CNS(=O)(=O)c1cc2c(c3cnc(C4CC4)cc13)C(NC(=O)Nc1ccc(Br)cc1)CC2 (stereo not drawn) [Example 45, 1-(4-bromophenyl)-3-[3-cyclopropyl-5-(2-methylpropylsulfamoyl)-8,9-dihydro-7H-cyclopenta[h]isoquinolin-9-yl]urea] | 100 to 2000 nM
CC(C)CNS(=O)(=O)c1cc2c(c3cnc(C4CC4)cc13)C(Nc1nncn1-c1ccnn1C)CC2 (stereo not drawn) [Example 3, 3-cyclopropyl-N-isobutyl-9-[[4-(2-methylpyrazol-3-yl)-1,2,4-triazol-3-yl]amino]-8,9-dihydro-7H-cyclopenta[h]isoquinoline-5-sulfonamide] | 100 to 2000 nM
CCNc1nncn1C1CCc2c1cc(S(=O)(=O)NCC(C)C)c1cc(C3CC3)ncc21 (single isomer, unassigned) [Example 52, (7R*)-3-cyclopropyl-7-[3-(ethylamino)-1,2,4-triazol-4-yl]-N-(2-methylpropyl)-8,9-dihydro-7H-cyclopenta[h]isoquinoline-5-sulfonamide] | 10 to 50 nM
CC(C)CNS(=O)(=O)c1cc2c(c3cnc(C4CC4)cc13)C(n1cnnc1Nc1cncc(F)c1)CC2 (stereo not drawn) [Example 6, 3-cyclopropyl-9-[3-[(5-fluoro-3-pyridyl)amino]-1,2,4-triazol-4-yl]-N-isobutyl-8,9-dihydro-7H-cyclopenta[h]isoquinoline-5-sulfonamide] | 100 to 2000 nM
CC(C)CNS(=O)(=O)c1cc2c(c3cnc(C4CC4)cc13)C(Nc1ccc(C(=O)O)nc1)CC2 (stereo not drawn) [Example 19, 5-[[3-cyclopropyl-5-(2-methylpropylsulfamoyl)-8,9-dihydro-7H-cyclopenta[h]isoquinolin-9-yl]amino]pyridine-2-carboxylic Acid] | 100 to 2000 nM
Cn1c(NC2CCc3cc(S(=O)(=O)NCC(C)(C)F)c4cc(C5CC5)ncc4c32)nc2ccccc21 (stereo not drawn) [Example 17, 3-cyclopropyl-N-(2-fluoro-2-methylpropyl)-9-[(1-methylbenzimidazol-2-yl)amino]-8,9-dihydro-7H-cyclopenta[h]isoquinoline-5-sulfonamide] | 100 to 2000 nM
Cc1cc(-n2cnnc2NC2CCc3c2cc(S(=O)(=O)NCC(C)C)c2cc(C4CC4)ncc32)n(C)n1 (stereo not drawn) [Example 88, 3-cyclopropyl-7-[[4-(2,5-dimethylpyrazol-3-yl)-1,2,4-triazol-3-yl]amino]-N-(2-methylpropyl)-8,9-dihydro-7H-cyclopenta[h]isoquinoline-5-sulfonamide] | 100 to 2000 nM
